# Laboratory results from ChEMBL document CHEMBL2086272, “Anticlastogenic effect in human lymphocytes by the sodium salt of 3,4-secoisopimar-4(18),7,15-trien-3-oic acid” (J Nat Prod, 2012).
# Activity calls are given as the source filed them. No cut-off for these calls is given here.
# Key:
# PBL [1] = assay: (§1) Antimutagenic activity in human PBL assessed as inhibition of ethyl methanesulfonate-induced frequency of micronucleus per 1000 binucleated lymphocyte cells at 1930 uM pretreated before ethyl methanesulfonate by cytokinesis blocking technique (reference value: 3.33 +/- 0.88 micronucleus frequency/1000 binucleated lymphocyte cells); type: functional
# PBL [2] = assay: as §1, with “0.3” for “1930”; type: functional
# PBL [3] = assay: as §1, with “3.3” for “1930”; type: functional
# PBL [4] = assay: as §1, with “33” for “1930”; type: functional
# PBL [5] = assay: as §1, with “330” for “1930”; type: functional
# PBL [6] = assay: as §1, with “colcemid-induced” for “ethyl methanesulfonate-induced”, “0.054” for “1930”, “colcemid” for “ethyl methanesulfonate”; type: functional
# PBL [7] = assay: as §1, with “colcemid-induced” for “ethyl methanesulfonate-induced”, “0.3” for “1930”, “colcemid” for “ethyl methanesulfonate”; type: functional
# PBL [8] = assay: as §1, with “colcemid-induced” for “ethyl methanesulfonate-induced”, “3.3” for “1930”, “colcemid” for “ethyl methanesulfonate”; type: functional
# PBL [9] = assay: as §1, with “colcemid-induced” for “ethyl methanesulfonate-induced”, “33” for “1930”, “colcemid” for “ethyl methanesulfonate”; type: functional
# PBL [10] = assay: as §1, with “colcemid-induced” for “ethyl methanesulfonate-induced”, “330” for “1930”, “colcemid” for “ethyl methanesulfonate”; type: functional, cell-based
# PBL [11] = assay: as §1, with “co-treated with” for “pretreated before”, “4.00” for “3.33”, “0.41” for “0.88”; type: functional
# PBL [12] = assay: as §1, with “0.3” for “1930”, “co-treated with” for “pretreated before”, “4.00” for “3.33”, “0.41” for “0.88”; type: functional
# PBL [13] = assay: as §1, with “3.3” for “1930”, “co-treated with” for “pretreated before”, “4.00” for “3.33”, “0.41” for “0.88”; type: functional
# PBL [14] = assay: as §1, with “33” for “1930”, “co-treated with” for “pretreated before”, “4.00” for “3.33”, “0.41” for “0.88”; type: functional
# PBL [15] = assay: as §1, with “330” for “1930”, “co-treated with” for “pretreated before”, “4.00” for “3.33”, “0.41” for “0.88”; type: functional
# PBL [16] = assay: (§2) Antimutagenic activity in human PBL assessed as inhibition of colcemid-induced frequency of micronucleus per 1000 binucleated lymphocyte cells at 0.054 uM co-treated with colcemid by cytokinesis blocking technique (reference value: 4.00 +/- 0.41 micronucleus frequency/1000 binucleated lymphocyte cells); type: functional
# PBL [17] = assay: as §2, with “0.3” for “0.054”; type: functional
# PBL [18] = assay: as §2, with “3.3” for “0.054”; type: functional
# PBL [19] = assay: (§3) Antimutagenic activity in human PBL assessed as inhibition of colcemid-induced frequency of micronucleus per 1000 binucleated lymphocyte cells at 33 uM co-treated with colcemid by cytokinesis blocking technique (reference value: 4.00 +/- 0.41 micronucleus frequency/1000 binucleated lymphocyte cells); type: functional
# PBL [20] = assay: as §2, with “330” for “0.054”; type: functional
# PBL [21] = assay: as §1, with “treated after treatment with” for “pretreated before”, “0.33” for “0.88”; type: functional
# PBL [22] = assay: as §1, with “0.3” for “1930”, “treated after treatment with” for “pretreated before”, “0.33” for “0.88”; type: functional
# PBL [23] = assay: as §1, with “3.3” for “1930”, “treated after treatment with” for “pretreated before”, “0.33” for “0.88”; type: functional
# PBL [24] = assay: as §1, with “33” for “1930”, “treated after treatment with” for “pretreated before”, “0.33” for “0.88”; type: functional
# PBL [25] = assay: as §1, with “330” for “1930”, “treated after treatment with” for “pretreated before”, “0.33” for “0.88”; type: functional
# PBL [26] = assay: as §2, with “treated after treatment” for “co-treated”, “3.33” for “4.00”, “0.33” for “0.41”; type: functional
# PBL [27] = assay: as §2, with “0.3” for “0.054”, “treated after treatment” for “co-treated”, “3.33” for “4.00”, “0.33” for “0.41”; type: functional
# PBL [28] = assay: as §2, with “3.3” for “0.054”, “treated after treatment” for “co-treated”, “3.33” for “4.00”, “0.33” for “0.41”; type: functional
# PBL [29] = assay: as §3, with “treated after treatment” for “co-treated”, “3.33” for “4.00”, “0.33” for “0.41”; type: functional
# PBL [30] = assay: as §2, with “330” for “0.054”, “treated after treatment” for “co-treated”, “3.33” for “4.00”, “0.33” for “0.41”; type: functional
# PBL [31] = assay: Cytotoxicity in human PBL assessed as nuclear division index at 1930 uM pretreated before ethyl methanesulfonate (reference value: 1.63 +/- 0.11 nuclear division index); type: cell-based
# PBL [32] = assay: Cytotoxicity in human PBL assessed as nuclear division index at 0.3 uM pretreated before ethyl methanesulfonate (reference value: 1.63 +/- 0.11 nuclear division index); type: cell-based
# PBL [33] = assay: Cytotoxicity in human PBL assessed as nuclear division index at 3.3 uM pretreated before ethyl methanesulfonate (reference value: 1.63 +/- 0.11 nuclear division index); type: cell-based
# PBL [34] = assay: Cytotoxicity in human PBL assessed as nuclear division index at 33 uM pretreated before ethyl methanesulfonate (reference value: 1.63 +/- 0.11 nuclear division index); type: cell-based
# PBL [35] = assay: Cytotoxicity in human PBL assessed as nuclear division index at 330 uM pretreated before ethyl methanesulfonate (reference value: 1.63 +/- 0.11 nuclear division index); type: cell-based
# PBL [36] = assay: Cytotoxicity in human PBL assessed as nuclear division index at 0.054 uM pretreated before colcemid (reference value: 1.63 +/- 0.11 nuclear division index); type: cell-based
# PBL [37] = assay: Cytotoxicity in human PBL assessed as nuclear division index at 0.3 uM pretreated before colcemid (reference value: 1.63 +/- 0.11 nuclear division index); type: cell-based
# PBL [38] = assay: Cytotoxicity in human PBL assessed as nuclear division index at 3.3 uM pretreated before colcemid (reference value: 1.63 +/- 0.11 nuclear division index); type: cell-based
# PBL [39] = assay: Cytotoxicity in human PBL assessed as nuclear division index at 33 uM pretreated before colcemid (reference value: 1.63 +/- 0.11 nuclear division index); type: cell-based
# PBL [40] = assay: Cytotoxicity in human PBL assessed as nuclear division index at 330 uM pretreated before colcemid (reference value: 1.63 +/- 0.11 nuclear division index); type: cell-based
# PBL [41] = assay: Cytotoxicity in human PBL assessed as nuclear division index at 1930 uM co-treated with ethyl methanesulfonate (reference value: 1.65 +/- 0.06 nuclear division index); type: cell-based
# PBL [42] = assay: Cytotoxicity in human PBL assessed as nuclear division index at 0.3 uM co-treated with ethyl methanesulfonate (reference value: 1.65 +/- 0.06 nuclear division index); type: cell-based
# PBL [43] = assay: Cytotoxicity in human PBL assessed as nuclear division index at 3.3 uM co-treated with ethyl methanesulfonate (reference value: 1.65 +/- 0.06 nuclear division index); type: cell-based
# PBL [44] = assay: Cytotoxicity in human PBL assessed as nuclear division index at 33 uM co-treated with ethyl methanesulfonate (reference value: 1.65 +/- 0.06 nuclear division index); type: cell-based
# PBL [45] = assay: Cytotoxicity in human PBL assessed as nuclear division index at 330 uM co-treated with ethyl methanesulfonate (reference value: 1.65 +/- 0.06 nuclear division index); type: cell-based
# PBL [46] = assay: Cytotoxicity in human PBL assessed as nuclear division index at 0.054 uM co-treated with colcemid (reference value: 1.65 +/- 0.06 nuclear division index); type: cell-based
# PBL [47] = assay: Cytotoxicity in human PBL assessed as nuclear division index at 0.3 uM co-treated with colcemid (reference value: 1.65 +/- 0.06 nuclear division index); type: cell-based
# PBL [48] = assay: Cytotoxicity in human PBL assessed as nuclear division index at 3.3 uM co-treated with colcemid (reference value: 1.65 +/- 0.06 nuclear division index); type: cell-based
# PBL [49] = assay: Cytotoxicity in human PBL assessed as nuclear division index at 33 uM co-treated with colcemid (reference value: 1.65 +/- 0.06 nuclear division index); type: cell-based
# PBL [50] = assay: Cytotoxicity in human PBL assessed as nuclear division index at 330 uM co-treated with colcemid (reference value: 1.65 +/- 0.06 nuclear division index); type: cell-based
# PBL [51] = assay: Cytotoxicity in human PBL assessed as nuclear division index at 1930 uM treated after treatment with ethyl methanesulfonate (reference value: 1.59 +/- 0.08 nuclear division index); type: cell-based
# PBL [52] = assay: Cytotoxicity in human PBL assessed as nuclear division index at 0.3 uM treated after treatment with ethyl methanesulfonate (reference value: 1.59 +/- 0.08 nuclear division index); type: cell-based
# PBL [53] = assay: Cytotoxicity in human PBL assessed as nuclear division index at 3.3 uM treated after treatment with ethyl methanesulfonate (reference value: 1.59 +/- 0.08 nuclear division index); type: cell-based
# PBL [54] = assay: Cytotoxicity in human PBL assessed as nuclear division index at 33 uM treated after treatment with ethyl methanesulfonate (reference value: 1.59 +/- 0.08 nuclear division index); type: cell-based
# PBL [55] = assay: Cytotoxicity in human PBL assessed as nuclear division index at 330 uM treated after treatment with ethyl methanesulfonate (reference value: 1.59 +/- 0.08 nuclear division index); type: cell-based
# PBL [56] = assay: Cytotoxicity in human PBL assessed as nuclear division index at 0.054 uM treated after treatment with colcemid (reference value: 1.59 +/- 0.08 nuclear division index); type: cell-based
# PBL [57] = assay: Cytotoxicity in human PBL assessed as nuclear division index at 0.3 uM treated after treatment with colcemid (reference value: 1.59 +/- 0.08 nuclear division index); type: cell-based
# PBL [58] = assay: Cytotoxicity in human PBL assessed as nuclear division index at 3.3 uM treated after treatment with colcemid (reference value: 1.59 +/- 0.08 nuclear division index); type: cell-based
# PBL [59] = assay: Cytotoxicity in human PBL assessed as nuclear division index at 33 uM treated after treatment with colcemid (reference value: 1.59 +/- 0.08 nuclear division index); type: cell-based
# PBL [60] = assay: Cytotoxicity in human PBL assessed as nuclear division index at 330 uM treated after treatment with colcemid (reference value: 1.59 +/- 0.08 nuclear division index); type: cell-based
# PBL [61] = assay: Cytotoxicity in human PBL assessed as nuclear division index at 0.3 to 330 uM; type: cell-based
# PBL [62] = assay: Genotoxicity in human PBL assessed as micronucleus frequency at 0.3 to 330 uM; type: toxicity, cell-based
smiles,measurement,setting,value
C=C[C@@]1(C)CC[C@H]2C(=CC[C@@H](C(=C)C)[C@]2(C)CCC(=O)[O-])C1.[Na+],Activity,PBL [1],14
same,Activity,PBL [2],5.5
same,Activity,PBL [3],5.75
same,Activity,PBL [4],3.75
same,Activity,PBL [5],4
same,Activity,PBL [6],22.75
same,Activity,PBL [7],19.25
same,Activity,PBL [8],18.42
same,Activity,PBL [9],18
same,Activity,PBL [10],inactive
same,Activity,PBL [11],15.8
same,Activity,PBL [12],4
same,Activity,PBL [13],6.75
same,Activity,PBL [14],5.5
same,Activity,PBL [15],4.5
same,Activity,PBL [16],24.78
same,Activity,PBL [17],21.5
same,Activity,PBL [18],21.25
same,Activity,PBL [19],21
same,Activity,PBL [20],20.25
same,Activity,PBL [21],20.14
same,Activity,PBL [22],19.25
same,Activity,PBL [23],19.75
same,Activity,PBL [24],19.5
same,Activity,PBL [25],20
same,Activity,PBL [26],12.25
same,Activity,PBL [27],11.25
same,Activity,PBL [28],12.25
same,Activity,PBL [29],11.75
same,Activity,PBL [30],12.5
same,Activity,PBL [31],1.53
same,Activity,PBL [32],1.46
same,Activity,PBL [33],1.49
same,Activity,PBL [34],1.42
same,Activity,PBL [35],1.28
same,Activity,PBL [36],1.52
same,Activity,PBL [37],1.44
same,Activity,PBL [38],1.28
same,Activity,PBL [39],1.31
same,Activity,PBL [40],1.03
same,Activity,PBL [41],1.55
same,Activity,PBL [42],1.38
same,Activity,PBL [43],1.58
same,Activity,PBL [44],1.53
same,Activity,PBL [45],1.63
same,Activity,PBL [46],1.39
same,Activity,PBL [47],1.37
same,Activity,PBL [48],1.42
same,Activity,PBL [49],1.51
same,Activity,PBL [50],1.41
same,Activity,PBL [51],1.41
same,Activity,PBL [52],1.43
same,Activity,PBL [53],1.36
same,Activity,PBL [54],1.36
same,Activity,PBL [55],1.31
same,Activity,PBL [56],1.65
same,Activity,PBL [57],1.59
same,Activity,PBL [58],1.58
same,Activity,PBL [59],1.56
same,Activity,PBL [60],1.56
same,Activity,PBL [61],Non-toxic
same,Activity,PBL [62],Non-toxic
